# Test results taken from the supplement of paper PMC5908809.
# What was measured:
# [1] = tested on: normal NK cells expanded with K562-aAPC; assay: percent inhibition of viability; higher = more inhibition; conditions: 72 h, IL-2 2.5 ng/mL
# Protocol: (§1)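 Drug sensitivity and resistance testing on K562-aAPC-expanded normal NK cells: 5 concentrations (10-fold steps over a 10,000-fold range), 72 h at 37 °C, viability by CellTiter-Glo normalised to DMSO and benzethonium chloride controls; DSS from the fitted curve.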
# DERL-7 (IL-2 2.5 ng/mL) [2] = assay: as above; conditions: 72 h
# IMC-1 (IL-2 20 ng/mL) [3] = assay: as above; conditions: 72 h
# KAI3 (IL-2 2.5 ng/mL) [4] = assay: as above; conditions: 72 h
# KHYG-1 (IL-2 2.5 ng/mL) [5] = assay: as above; conditions: 72 h
# NK-92 (IL-2 2.5 ng/mL) [6] = assay: as above; conditions: 72 h
# NK-YS (IL-2 2.5 ng/mL) [7] = assay: as above; conditions: 72 h
# NKL (IL-2 2.5 ng/mL) [8] = assay: as above; conditions: 72 h
# SNK-6 (IL-2 2.5 ng/mL) [9] = assay: as above; conditions: 72 h
# YT (IL-2 2.5 ng/mL) [10] = assay: as above; conditions: 72 h
# [11] = tested on: normal primary NK cells, pool 1 (3 donors) (IL-2 2.5 ng/mL); assay: as above; conditions: 72 h
# [12] = tested on: normal primary NK cells, pool 1 (3 donors), resting (IL-2 0 ng/mL); assay: as above; conditions: 72 h
# [13] = tested on: normal primary NK cells, pool 2 (3 donors) (IL-2 2.5 ng/mL); assay: as above; conditions: 72 h
# [14] = tested on: normal primary NK cells, pool 3 (3 donors) (IL-2 2.5 ng/mL); assay: as above; conditions: 72 h
# [15] = tested on: normal NK cells expanded with K562-aAPC; assay: drug sensitivity score (DSS) (DSS units); higher = more sensitive; extreme values may be limits of the assay; conditions: 72 h; IL-2 2.5 ng/mL
# Protocol: as §1
# DERL-7 (IL-2 2.5 ng/mL) [16] = assay: as above; conditions: 72 h
# IMC-1 (IL-2 20 ng/mL) [17] = assay: as above; conditions: 72 h
# KAI3 (IL-2 2.5 ng/mL) [18] = assay: as above; conditions: 72 h
# KHYG-1 (IL-2 2.5 ng/mL) [19] = assay: as above; conditions: 72 h
# NK-92 (IL-2 2.5 ng/mL) [20] = assay: as above; conditions: 72 h
# NK-YS (IL-2 2.5 ng/mL) [21] = assay: as above; conditions: 72 h
# NKL (IL-2 2.5 ng/mL) [22] = assay: as above; conditions: 72 h
# SNK-6 (IL-2 2.5 ng/mL) [23] = assay: as above; conditions: 72 h
# YT (IL-2 2.5 ng/mL) [24] = assay: as above; conditions: 72 h
# [25] = tested on: normal primary NK cells, pool 1 (3 donors) (IL-2 2.5 ng/mL); assay: as above; conditions: 72 h
# [26] = tested on: normal primary NK cells, pool 1 (3 donors), resting (IL-2 0 ng/mL); assay: as above; conditions: 72 h
# [27] = tested on: normal primary NK cells, pool 2 (3 donors) (IL-2 2.5 ng/mL); assay: as above; conditions: 72 h
# [28] = tested on: normal primary NK cells, pool 3 (3 donors) (IL-2 2.5 ng/mL); assay: as above; conditions: 72 h
structure (smiles),measurement,setting,value
Nc1ncnc2c1nc(N)n2[C@@H]1O[C@H](CO)[C@@H](O)[C@H]1O [8-amino-adenosine] (max concentration tested 50000 nM),percent inhibition of viability,[1]; 5 nM,-1.82%
same,percent inhibition of viability,[1]; 50 nM,3.86%
same,percent inhibition of viability,[1]; 500 nM,28.5%
same,percent inhibition of viability,[1]; 5000 nM,101%
same,percent inhibition of viability,[1]; 50000 nM,101%
same,percent inhibition of viability,DERL-7 (IL-2 2.5 ng/mL) [2]; 5 nM,-0.37%
same,percent inhibition of viability,DERL-7 (IL-2 2.5 ng/mL) [2]; 50 nM,-2.93%
same,percent inhibition of viability,DERL-7 (IL-2 2.5 ng/mL) [2]; 500 nM,51.5%
same,percent inhibition of viability,DERL-7 (IL-2 2.5 ng/mL) [2]; 5000 nM,101%
same,percent inhibition of viability,DERL-7 (IL-2 2.5 ng/mL) [2]; 50000 nM,101%
same,percent inhibition of viability,IMC-1 (IL-2 20 ng/mL) [3]; 5 nM,-2.9%
same,percent inhibition of viability,IMC-1 (IL-2 20 ng/mL) [3]; 50 nM,-0.37%
same,percent inhibition of viability,IMC-1 (IL-2 20 ng/mL) [3]; 500 nM,12.2%
same,percent inhibition of viability,IMC-1 (IL-2 20 ng/mL) [3]; 5000 nM,101%
same,percent inhibition of viability,IMC-1 (IL-2 20 ng/mL) [3]; 50000 nM,101%
same,percent inhibition of viability,KAI3 (IL-2 2.5 ng/mL) [4]; 5 nM,-12.9%
same,percent inhibition of viability,KAI3 (IL-2 2.5 ng/mL) [4]; 50 nM,-1.89%
same,percent inhibition of viability,KAI3 (IL-2 2.5 ng/mL) [4]; 500 nM,75.4%
same,percent inhibition of viability,KAI3 (IL-2 2.5 ng/mL) [4]; 5000 nM,104%
same,percent inhibition of viability,KAI3 (IL-2 2.5 ng/mL) [4]; 50000 nM,106%
same,percent inhibition of viability,KHYG-1 (IL-2 2.5 ng/mL) [5]; 5 nM,-1.34%
same,percent inhibition of viability,KHYG-1 (IL-2 2.5 ng/mL) [5]; 50 nM,-2.24%
same,percent inhibition of viability,KHYG-1 (IL-2 2.5 ng/mL) [5]; 500 nM,21.2%
same,percent inhibition of viability,KHYG-1 (IL-2 2.5 ng/mL) [5]; 5000 nM,105%
same,percent inhibition of viability,KHYG-1 (IL-2 2.5 ng/mL) [5]; 50000 nM,109%
same,percent inhibition of viability,NK-92 (IL-2 2.5 ng/mL) [6]; 5 nM,-19.1%
same,percent inhibition of viability,NK-92 (IL-2 2.5 ng/mL) [6]; 50 nM,-2.94%
same,percent inhibition of viability,NK-92 (IL-2 2.5 ng/mL) [6]; 500 nM,59.2%
same,percent inhibition of viability,NK-92 (IL-2 2.5 ng/mL) [6]; 5000 nM,106%
same,percent inhibition of viability,NK-92 (IL-2 2.5 ng/mL) [6]; 50000 nM,109%
same,percent inhibition of viability,NK-YS (IL-2 2.5 ng/mL) [7]; 5 nM,-5.77%
same,percent inhibition of viability,NK-YS (IL-2 2.5 ng/mL) [7]; 50 nM,-1.64%
same,percent inhibition of viability,NK-YS (IL-2 2.5 ng/mL) [7]; 500 nM,26%
same,percent inhibition of viability,NK-YS (IL-2 2.5 ng/mL) [7]; 5000 nM,102%
same,percent inhibition of viability,NK-YS (IL-2 2.5 ng/mL) [7]; 50000 nM,108%
same,percent inhibition of viability,NKL (IL-2 2.5 ng/mL) [8]; 5 nM,-18.8%
same,percent inhibition of viability,NKL (IL-2 2.5 ng/mL) [8]; 50 nM,6.72%
same,percent inhibition of viability,NKL (IL-2 2.5 ng/mL) [8]; 500 nM,63%
same,percent inhibition of viability,NKL (IL-2 2.5 ng/mL) [8]; 5000 nM,107%
same,percent inhibition of viability,NKL (IL-2 2.5 ng/mL) [8]; 50000 nM,109%
same,percent inhibition of viability,SNK-6 (IL-2 2.5 ng/mL) [9]; 5 nM,24.4%
same,percent inhibition of viability,SNK-6 (IL-2 2.5 ng/mL) [9]; 50 nM,39.9%
same,percent inhibition of viability,SNK-6 (IL-2 2.5 ng/mL) [9]; 500 nM,75.8%
same,percent inhibition of viability,SNK-6 (IL-2 2.5 ng/mL) [9]; 5000 nM,99%
same,percent inhibition of viability,SNK-6 (IL-2 2.5 ng/mL) [9]; 50000 nM,101%
same,percent inhibition of viability,YT (IL-2 2.5 ng/mL) [10]; 5 nM,-0.2%
same,percent inhibition of viability,YT (IL-2 2.5 ng/mL) [10]; 50 nM,1.01%
same,percent inhibition of viability,YT (IL-2 2.5 ng/mL) [10]; 500 nM,20.2%
same,percent inhibition of viability,YT (IL-2 2.5 ng/mL) [10]; 5000 nM,102%
same,percent inhibition of viability,YT (IL-2 2.5 ng/mL) [10]; 50000 nM,110%
same,percent inhibition of viability,[11]; 5 nM,2.12%
same,percent inhibition of viability,[11]; 50 nM,-9.21%
same,percent inhibition of viability,[11]; 500 nM,1.92%
same,percent inhibition of viability,[11]; 5000 nM,26.5%
same,percent inhibition of viability,[11]; 50000 nM,81.2%
same,percent inhibition of viability,[12]; 5 nM,-6.09%
same,percent inhibition of viability,[12]; 50 nM,-20.9%
same,percent inhibition of viability,[12]; 500 nM,-6.28%
same,percent inhibition of viability,[12]; 5000 nM,5.09%
same,percent inhibition of viability,[12]; 50000 nM,75.2%
same,percent inhibition of viability,[13]; 5 nM,-14.7%
same,percent inhibition of viability,[13]; 50 nM,-1.95%
same,percent inhibition of viability,[13]; 500 nM,0.14%
same,percent inhibition of viability,[13]; 5000 nM,36.1%
same,percent inhibition of viability,[13]; 50000 nM,88.7%
same,percent inhibition of viability,[14]; 5 nM,-13.3%
same,percent inhibition of viability,[14]; 50 nM,-8.61%
same,percent inhibition of viability,[14]; 500 nM,10.2%
same,percent inhibition of viability,[14]; 5000 nM,31%
same,percent inhibition of viability,[14]; 50000 nM,84.2%
same,drug sensitivity score,[15],22.2
same,drug sensitivity score,DERL-7 (IL-2 2.5 ng/mL) [16],24.3
same,drug sensitivity score,IMC-1 (IL-2 20 ng/mL) [17],20.1
same,drug sensitivity score,KAI3 (IL-2 2.5 ng/mL) [18],26.6
same,drug sensitivity score,KHYG-1 (IL-2 2.5 ng/mL) [19],21.4
same,drug sensitivity score,NK-92 (IL-2 2.5 ng/mL) [20],25
same,drug sensitivity score,NK-YS (IL-2 2.5 ng/mL) [21],22
same,drug sensitivity score,NKL (IL-2 2.5 ng/mL) [22],25.6
same,drug sensitivity score,SNK-6 (IL-2 2.5 ng/mL) [23],32.5
same,drug sensitivity score,YT (IL-2 2.5 ng/mL) [24],21.3
same,drug sensitivity score,[25],8.3
same,drug sensitivity score,[26],4.92
same,drug sensitivity score,[27],9.73
same,drug sensitivity score,[28],8.22
